{
  "source": "patent US20240391875A1",
  "about": "“ISOQUINOLINONES AND QUINOLINONES AS MODULATORS OF POLRMT” (Pretzel Therapeutics, Inc., priority 2021, published 2024)",
  "data": [
    {"target": "POLRMT (Homo sapiens, UniProt O00411)", "sequence (O00411 42-1230)": "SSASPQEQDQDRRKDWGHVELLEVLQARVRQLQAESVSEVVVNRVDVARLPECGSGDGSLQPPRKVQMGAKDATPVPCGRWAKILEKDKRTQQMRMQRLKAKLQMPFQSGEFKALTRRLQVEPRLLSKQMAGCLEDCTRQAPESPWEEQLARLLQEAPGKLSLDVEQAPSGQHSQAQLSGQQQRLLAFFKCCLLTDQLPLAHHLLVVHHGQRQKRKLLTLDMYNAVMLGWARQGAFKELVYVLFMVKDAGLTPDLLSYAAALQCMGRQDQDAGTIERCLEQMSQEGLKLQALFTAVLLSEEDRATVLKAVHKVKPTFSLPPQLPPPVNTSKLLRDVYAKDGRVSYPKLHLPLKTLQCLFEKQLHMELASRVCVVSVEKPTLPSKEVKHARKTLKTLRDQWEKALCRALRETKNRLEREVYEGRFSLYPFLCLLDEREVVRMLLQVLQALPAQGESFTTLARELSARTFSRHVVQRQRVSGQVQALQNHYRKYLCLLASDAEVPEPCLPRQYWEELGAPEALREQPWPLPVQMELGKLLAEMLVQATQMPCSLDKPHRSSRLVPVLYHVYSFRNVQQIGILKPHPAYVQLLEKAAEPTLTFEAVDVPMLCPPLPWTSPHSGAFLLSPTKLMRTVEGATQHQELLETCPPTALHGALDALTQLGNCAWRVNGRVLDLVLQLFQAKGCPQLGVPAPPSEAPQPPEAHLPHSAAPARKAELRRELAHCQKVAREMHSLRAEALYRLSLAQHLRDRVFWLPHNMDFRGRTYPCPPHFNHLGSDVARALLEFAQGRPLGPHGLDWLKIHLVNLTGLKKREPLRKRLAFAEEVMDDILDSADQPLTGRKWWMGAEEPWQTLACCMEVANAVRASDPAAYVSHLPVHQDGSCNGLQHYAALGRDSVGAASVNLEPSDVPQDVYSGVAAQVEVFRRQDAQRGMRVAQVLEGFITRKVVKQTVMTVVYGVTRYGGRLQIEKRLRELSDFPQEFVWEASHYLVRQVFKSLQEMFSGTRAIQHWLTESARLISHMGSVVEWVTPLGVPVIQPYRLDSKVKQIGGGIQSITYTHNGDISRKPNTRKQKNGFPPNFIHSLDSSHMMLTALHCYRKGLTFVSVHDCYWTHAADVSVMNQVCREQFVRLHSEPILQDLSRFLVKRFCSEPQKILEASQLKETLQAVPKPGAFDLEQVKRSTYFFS", "test": "homogeneous TR-FRET assay of mitochondrial transcription (inhibition of POLRMT)", "assay_type": "biochemical", "settings": "isoquinolinone compounds (Table 1)", "description": "(§1) The inhibitory activity of the compounds of the present invention against POLRMT were determined by assays based on Bergbrede, T., et al., “An adaptable high-throughput technology enabling the identification of specific transcription modulators,” SLAC Discov., 22, 378-386 (2017).\n(§2) The ability of some compounds of the present invention to inhibit POLRMT were determined in a homogeneous TR-FRET Assay using high-throughput screening in a 384-well plate format. This method is used to monitor the activity of mitochondrial transcription through measurement of its product, a 407 bp long RNA transcript. Detection of the product is facilitated by hybridization of two DNA-oligonucleotide probes to specific and adjacent sequences within the RNA product sequence. Upon annealing of the probes, two fluorophores are coupled directly to an acceptor nucleotide probe (ATTO647, 5′), or introduced via a coupled streptavidin with a biotinylated donor nucleotide probe (Europium cryptate) that is brought into sufficient proximity to serve as a fluorescence-donor-acceptor pair. Thus, a FRET signal at 665 nm is generated upon excitation at 340 nm.\n(§3) Proteins used as transcription factors (POLRMT: NP_005026.3, TFAM: NP_003192.1, TFB2M: NP_071761.1) are diluted from their stocks to working concentrations of 1 μM, 20 μM and 4 μM respectively, in a dilution buffer containing 20 mM Tris-HCl (pH 8.0), 200 mM NaCl, 10% (v/v) glycerol, 1 mM Dithiothreitol (DTT), 0.5 mM EDTA.\n(§4) DNA template is a pUC18 plasmid with the mitochondrial light strand promotor sequence (1-477) cloned between HindIII and BamHI sites. The DNA template is restriction linearized proximal to the promotor 3′-end (pUC-LSP).\n(§5) The reaction mixture (10 uL) containing 7.5 nM POLRMT, 15 nM of TFB2M, 30 nM of TFAM, 0.5 nM of DNA template and 500 μM nucleotide triphosphate mix (NTPs) in a reaction buffer (containing 10 mM Tris-HCl (pH 7.5), 10 mM MgCl2, 40 mM NaCl, 10 mM DTT, 0.005% (w/v) Tween-20, 160 units/ml Rnase inhibitor and 0.1 mg/mL BSA) are dispensed to compounds in microplates, using a Thermo Multidrop® dispenser, and incubated at 37° C. in a VWR INCU-Line incubator for 60 minutes after mixing. No nucleotide triphosphate mix is added to negative control samples. Microplates with compounds to be tested in the assay are prepared from 10 mM compound stocks in 100% DMSO, equal amounts of DMSO without any compound are added to positive control and negative control samples.\n(§6) During the incubation, a mix of the detection reagents is prepared in a buffer such that the enzymatic reaction is terminated due to chelating of Mg-ions and increased ionic strength, containing 50 mM Tris-HCl (pH 7.5), 700 mM NaCl, 20 mM EDTA, and 0.010% (w/v) Tween-20. Europium-streptavidin is pre-incubated with a 200-fold molar excess of a random sequence oligonucleotide to block unspecific binding of oligo, for two hours at ambient temperature in the dark. Afterwards, the blocked Europium-streptavidin is kept on ice until use.\n(§7) At the end of the enzymatic reaction time, 5 μL detection oligo mix in the detection buffer is added, and assay plates are mixed and kept at ambient temperature for one hour, protected from light. The concentration of the Acceptor nucleotide oligo (e.g., ATTO647N-5′-[…]-3′) and Donor nucleotide oligo (e.g., bio-5′-AACACATCTCT(-bio)GCCAAACCCCA-bio-3′) in each assay well is 1 nM, and 3 nM, respectively.\n(§8) After incubation with oligo mix, 5 μL of pre-blocked Europium-streptavidin reagent is dispensed to each assay well, assay plates are again mixed and kept at ambient temperature for one hour, protected from light.\n(§9) The generated signal is measured with BMG Pherastar microtiter plate reader with a TRF light unit, using excitation at 340 nm, an integration time of 200 μs, and a delay time of 100 μs, before detection at 620 nm and 665 nm. The ratio of donor- and acceptor-fluorescence is used as a measure of the generated transcript product (i.e. enzymatic activity).", "units": {"IC50": "nM"}, "values": [
      {"smiles": "Cc1ccccc1-c1c[nH]c(=O)c2cc(NC(=O)C3CCN(C)CC3)ccc12", "note": "[Example 43, 1-methyl-N-(1-oxo-4-(o-tolyl)-1,2-dihydroisoquinolin-7-yl)piperidine-4-carboxamide]", "IC50": "> 100000"},
      {"smiles": "C[C@@H](Oc1ccc2c(-c3ccc(F)cc3Cl)c[nH]c(=O)c2c1)C(=O)N1CCC(F)(F)CC1", "note": "[Example 91, (R)-4-(2-chloro-4-fluorophenyl)-7-((1-(4,4-difluoropiperidin-1-yl)-1-oxopropan-2-yl)oxy)isoquinolin-1(2H)-one]", "IC50": 300},
      {"smiles": "Cc1ccccc1-c1c[nH]c(=O)c2cc(O[C@H](C)C(=O)N3CC[C@H](C(=O)O)C3)ccc12", "note": "[Example 35, (S)-1-((R)-2-((1-oxo-4-(o-tolyl)-1,2-dihydroisoquinolin-7-yl)oxy)propanoyl)pyrrolidine-3-carboxylic acid]", "IC50": 400},
      {"smiles": "Cc1ccccc1-c1c[nH]c(=O)c2cc(O[C@H](C)C(=O)N3CCCC(S(C)(=O)=O)C3)ccc12", "note": "(single isomer, unassigned) [Example 98]", "IC50": 300},
      {"smiles": "Cc1ccccc1-c1c[nH]c(=O)c2cc(OC(C)C#N)ccc12", "note": "(single isomer, unassigned) [Example 13, 2-((1-oxo-4-(o-tolyl)-1,2-dihydroisoquinolin-7-yl)oxy)propanenitrile]", "IC50": 900},
      {"smiles": "Cc1ccccc1-c1c[nH]c(=O)c2cc(-c3ccccc3)ccc12", "note": "[Example 48, 7-phenyl-4-(o-tolyl)isoquinolin-1(2H)-one]", "IC50": 200},
      {"smiles": "C[C@@H](Oc1ccc2c(-c3ccc(F)cc3Cl)c[nH]c(=O)c2c1)C(=O)O", "note": "[Example 90, (R)-2-((4-(2-chloro-4-fluorophenyl)-1-oxo-1,2-dihydroisoquinolin-7-yl)oxy)propanoic acid]", "IC50": 1000},
      {"smiles": "CC(C)Oc1ccc2c(-c3ccc(F)cc3Cl)c[nH]c(=O)c2c1", "note": "[Example 7, 4-(2-chloro-4-fluorophenyl)-7-isopropoxyisoquinolin-1(2H)-one]", "IC50": 800},
      {"smiles": "COCCOc1ccc2c(-c3ccccc3C)c[nH]c(=O)c2c1", "note": "[Example 9, 7-(2-methoxyethoxy)-4-(o-tolyl)isoquinolin-1(2H)-one]", "IC50": 3000},
      {"smiles": "Cc1sccc1-c1c[nH]c(=O)c2cc(OCC#N)ccc12", "note": "[Example 133, 2-((4-(2-methylthiophen-3-yl)-1-oxo-1,2-dihydroisoquinolin-7-yl)oxy)acetonitrile]", "IC50": 1000},
      {"smiles": "COCC(Oc1ccc2c(-c3ccccc3C)c[nH]c(=O)c2c1)C(=O)O", "note": "(stereo not shown) [Example 51, 3-methoxy-2-((1-oxo-4-(o-tolyl)-1,2-dihydroisoquinolin-7-yl)oxy)propanoic acid]", "IC50": 6000},
      {"smiles": "C[C@@H](Oc1ccc2c(-c3ccc(F)cc3Cl)c[nH]c(=O)c2c1)C(=O)N1CCOC[C@@H]1C(N)=O", "note": "[Example 122, (R)-4-((R)-2-((4-(2-chloro-4-fluorophenyl)-1-oxo-1,2-dihydroisoquinolin-7-yl)oxy)propanoyl)morpholine-3-carboxamide]", "IC50": 300},
      {"smiles": "CNC(=O)[C@@H](C)Oc1ccc2c(-c3ccccc3C)c[nH]c(=O)c2c1", "note": "[Example 20, (R)—N-methyl-2-((1-oxo-4-(o-tolyl)-1,2-dihydroisoquinolin-7-yl)oxy)propanamide]", "IC50": 1000},
      {"smiles": "Cc1ccccc1-c1c[nH]c(=O)c2cc(OCC(=O)N(C)C)ccc12", "note": "[Example 8, N,N-dimethyl-2-((1-oxo-4-(o-tolyl)-1,2-dihydroisoquinolin-7-yl)oxy)acetamide]", "IC50": 35000},
      {"smiles": "Cc1ccccc1-c1c[nH]c(=O)c2cc(O[C@H](C)C(=O)N3CCCC(S(C)(=O)=O)C3)ccc12", "note": "(single isomer, unassigned) [Example 97]", "IC50": 300},
      {"smiles": "CCC(C)Oc1ccc2c(-c3ccccc3C)c[nH]c(=O)c2c1", "note": "(stereo not shown) [Example 5, 7-(sec-butoxy)-4-(o-tolyl)isoquinolin-1(2H)-one]", "IC50": 200},
      {"smiles": "C[C@H](Oc1ccc2c(-c3ccc(F)cc3Cl)c[nH]c(=O)c2c1)C(=O)N1CCC[C@H](C(=O)O)C1", "note": "[Example 59, (S)-1-((S)-2-((4-(2-chloro-4-fluorophenyl)-1-oxo-1,2-dihydroisoquinolin-7-yl)oxy)propanoyl)piperidine-3-carboxylic acid]", "IC50": 25000},
      {"smiles": "Cc1ccccc1-c1c[nH]c(=O)c2cc(NC(=O)C(C)C)ccc12", "note": "[Example 30, N-(1-oxo-4-(o-tolyl)-1,2-dihydroisoquinolin-7-yl)isobutyramide]", "IC50": 2000},
      {"smiles": "COC[C@@H]1COCCN1C(=O)[C@@H](C)Oc1ccc2c(-c3ccc(F)cc3Cl)c[nH]c(=O)c2c1", "note": "[Example 102, 4-(2-chloro-4-fluorophenyl)-7-(((R)-1-((R)-3-(methoxymethyl)morpholino)-1-oxopropan-2-yl)oxy)isoquinolin-1(2H)-one]", "IC50": 700},
      {"smiles": "N#CCOc1ccc2c(-c3ccc(F)cc3Cl)c[nH]c(=O)c2c1", "note": "[Example 37, 2-((4-(2-chloro-4-fluorophenyl)-1-oxo-1,2-dihydroisoquinolin-7-yl)oxy)acetonitrile]", "IC50": 900},
      {"smiles": "C[C@@H](Oc1ccc2c(-c3ccc(F)cc3Cl)c[nH]c(=O)c2c1)C(=O)N1CCN(S(C)(=O)=O)CC1", "note": "[Example 130, (R)-4-(2-chloro-4-fluorophenyl)-7-((1-(4-(methylsulfonyl)piperazin-1-yl)-1-oxopropan-2-yl)oxy)isoquinolin-1(2H)-one]", "IC50": 2000},
      {"smiles": "Cc1ccccc1-c1c[nH]c(=O)c2cc(O[C@H](C)C(=O)O)ccc12", "note": "[Example 88, (R)-2-((1-oxo-4-(o-tolyl)-1,2-dihydroisoquinolin-7-yl)oxy)propanoic acid]", "IC50": 400},
      {"smiles": "CC(C)Oc1ccc2c(-c3ccccc3C#N)c[nH]c(=O)c2c1", "note": "[Example 34, 2-(7-isopropoxy-1-oxo-1,2-dihydroisoquinolin-4-yl)benzonitrile]", "IC50": 14000},
      {"smiles": "Cc1cc(F)ccc1-c1c[nH]c(=O)c2cc(OCC#N)ccc12", "note": "[Example 83, 2-((4-(4-fluoro-2-methylphenyl)-1-oxo-1,2-dihydroisoquinolin-7-yl)oxy)acetonitrile]", "IC50": 400},
      {"smiles": "C[C@@H](Oc1ccc2c(-c3ccc(F)cc3Cl)c[nH]c(=O)c2c1)C(=O)N1CCOC[C@H]1C(N)=O", "note": "[Example 123, (S)-4-((R)-2-((4-(2-chloro-4-fluorophenyl)-1-oxo-1,2-dihydroisoquinolin-7-yl)oxy)propanoyl)morpholine-3-carboxamide]", "IC50": 300},
      {"smiles": "Cc1ccccc1-c1c[nH]c(=O)c2cc(OC(C)C#N)ccc12", "note": "(single isomer, unassigned) [Example 12, 2-((1-oxo-4-(o-tolyl)-1,2-dihydroisoquinolin-7-yl)oxy)propanenitrile]", "IC50": 200},
      {"smiles": "CC(C#N)Oc1ccc2c(-c3ccc(F)cc3Cl)c[nH]c(=O)c2c1", "note": "(single isomer, unassigned) [Example 49, 2-((4-(2-chloro-4-fluorophenyl)-1-oxo-1,2-dihydroisoquinolin-7-yl)oxy)propanenitrile]", "IC50": 5000},
      {"smiles": "C[C@@H](Oc1ccc2c(-c3ccc(F)cc3Cl)c[nH]c(=O)c2c1)C(=O)N1CCCC(S(C)(=O)=O)C1", "note": "(single isomer, unassigned) [Example 95]", "IC50": 1000},
      {"smiles": "C[C@@H](Oc1ccc2c(-c3ccc(F)cc3Cl)c[nH]c(=O)c2c1)C(=O)N1CC[S+]([O-])CC1", "note": "[Example 128, (R)-4-(2-chloro-4-fluorophenyl)-7-((1-(1-oxidothiomorpholino)-1-oxopropan-2-yl)oxy)isoquinolin-1(2H)-one]", "IC50": 3000}
    ]},
    {"target": "POLRMT (Homo sapiens, UniProt O00411)", "test": "homogeneous TR-FRET assay of mitochondrial transcription (inhibition of POLRMT)", "assay_type": "biochemical", "settings": "quinolinone compounds (Table 2)", "description": "as §1, §2, §3, §4, §5, §6, §7, §8, §9", "units": {"IC50": "nM"}, "values": [
      {"smiles": "COc1ccc2c(-c3ccccc3)cc(=O)[nH]c2c1", "note": "[Example Q9, 7-methoxy-4-phenylquinolin-2(1H)-one]", "IC50": "> 100000"},
      {"smiles": "Cc1ccccc1-c1cc(=O)[nH]c2cc(OC(C)C)ccc12", "note": "[Example Q10, 7-isopropoxy-4-(o-tolyl)quinolin-2(1H)-one]", "IC50": 2000}
    ]}
  ]
}
